Measured values: patent publication US20230091810A1, “FIRST-IN-CLASS OF SHMT2 AND MTHFD2 INHIBITORS AS ANTITUMOR AGENTS” (Duquesne University of the Holy Spirit, priority 2017, published 2023)
Read-outs that look alike come from different tables or passages of the source.

Assays:
[1] = test system: R2/PCFT4 (CHO); experiment: proliferation assay, R2/PCFT4 CHO cells expressing PCFT only; format: cell-based, Chinese hamster; conditions: Cricetulus griseus, folate-/glycine-free RPMI1640 with 25 nM leucovorin, 96 h, drug 0-1000 nM, read-out: IC50s (SE) R2/PCFT4 (CHO)
Protocol: Cell culture and proliferation/protection assays. […] Cell lines were verified by STR analysis by Genetica DNA Laboratories (Burlington, NC). MTXRIIOua^R2-4 (i.e. R2) Chinese hamster ovary (CHO) cells were generously provided by Dr. Wayne Flintoff (University of Western Ontario) (54). […]
For proliferation assays with the CHO cell lines, the cells were treated with drugs (0-1 µM) in a 96-well plate (2000 cells/well) in glycine-free, nucleoside-free folate-free RPMI supplemented with 10% dialyzed fetal bovine serum, 1% penicillin/streptomycin, 2 mM L-glutamine, and 25 nM leucovorin (final volume 200 µL) over a 96 h incubation period at 37° C. with 5% CO2. […] To quantify viable cells, the media was removed and plates were washed once with 100 µL Dulbecco’s Phosphate-Buffered Saline (PBS), after which 100 µL PBS and 20 µL Cell Titer-blue (Promega) were added. Relative cell numbers were proportional to the fluorescence measured with a fluorescence plate reader (590 nm emission, 560 nm excitation).

[2] = test system: HCT116 (CTC); experiment: proliferation assay, HCT116 colon tumor cells; format: cell-based, human; conditions: folate-/glycine-free RPMI1640 with 25 nM leucovorin, 96 h, read-out: IC50s (SE) HCT116 (CTC)
Protocol: Proliferation assays were performed with engineered Chinese hamster ovary (CHO) cell lines R2 (transporter-null), PC43-10 (expresses RFC only), RT16 (FRα only), and R2/PCFT4 (PCFT only) cultured in folate-/glycine-free RPMI1640 supplemented with 25 nM leucovorin. Additional results are shown for HCT116 (colon tumor cells (CTC)), IGROV1 (epithelial ovarian cancer (EOC) cells), H460 (non-small cell lung cancer (NSCLC) cells), MIAPaCa-2 (pancreatic cancer (PaC) cells), and HPAC (PaC).
Cell culture and proliferation/protection assays. The HCT116 cell lines including the serine hydroxymethyltransferase (SHMT) 1, SHMT2, and methylene THF dehydrogenase 2 (MTHFD2) knockout (KO) cells were previously described (47,53). The H460 cell line was obtained from the American Type Culture Collection (Manassas, VA), whereas the MIA PaCa-2 cells were provided by Dr. Yubin Ge (Karmanos Cancer Institute). Cell lines were verified by STR analysis by Genetica DNA Laboratories (Burlington, NC). MTXRIIOua^R2-4 (i.e. R2) Chinese hamster ovary (CHO) cells were generously provided by Dr. Wayne Flintoff (University of Western Ontario) (54). From this parental R2 cell line, human RFC and PCFT were individually transfected to generate the isogenic CHO cell lines designated PC43-10 (RFC) and R2/PCFT4 (PCFT) (55-57). Human tumor cell lines were cultured in folate-free RPMI supplemented with 10% dialyzed fetal bovine serum (Sigma-Aldrich), 1% penicillin/streptomycin solution, 2 mM L-glutamine, and 25 nM leucovorin in a humidified atmosphere at 37° C. in the presence of 5% CO2 and 95% air. The CHO cell lines were cultured in alpha-minimal essential medium (alpha-MEM) supplemented with 10% bovine calf serum, 1% penicillin/streptomycin solution, and 2 mM L-glutamine. Additionally, the transfected CHO cell lines (i.e. R2/PCFT4 and PC43-10) were maintained under continuous selection with 1 mg/ml of G418. […]

[3] = test system: human MIA PaCa-2 pancreatic adenocarcinoma xenografts; experiment: in vivo efficacy trial with MIA PaCa-2 pancreatic cancer xenografts; set-up: species or system SCID mice
Protocol: Female ICR SCID mice (10 weeks old; 19 g average body weight) were implanted bilaterally with human MIA PaCa-2 tumors. […] The mice were weighed and tumors were measured with a caliper two-to-three times weekly; mice were sacrificed when the cumulative tumor burden reached 1500 mg. Tumor weights were estimated from two-dimensional measurements, where tumor mass (in mg) = (a x b^2)/2, and a and b are the tumor length and width in mm, respectively. The tumor masses from both tumors on each mouse were added together, and the total mass per mouse was used for calculations of anti-tumor activity. Quantitative end-points include: (i) tumor growth delay [T-C, where T is the median time in days required for the treatment group tumors to reach a predetermined size (e.g., 1000 mg), and C is the median time in days for the control group tumors to reach the same size; tumor-free survivors are excluded from these calculations]; and (ii) T/C (in percent) when treatment (T) and control (C) groups for the control groups reached 700 mg in size (exponential growth phase). The median value of each group was determined (including zeros). Mouse weights were monitored as a gauge of drug toxicity.
Female ICR SCID mice (10 weeks old; 19 g average body weight) were implanted bilaterally with human MIA PaCa-2 PaC tumors.
In vivo efficacy trial with MIA PaCa-2 pancreatic cancer xenografts. Methods for in vivo maintenance of MIA PaCa-2 tumor xenografts and drug efficacy evaluations are analogous to those previously described (58, 62-67). MIA PaCa-2 human pancreatic cancer cells (5 × 10^6 cells/flank) were bilaterally implanted subcutaneously with tumor fragments (30-60 mg) with a 12-gauge trocar in female […] SCID mice (NCI Animal Production Program). The mice were 10 weeks old on day 0 (tumor implant) with an average body weight of 19 g. For the efficacy trial, the mice were maintained on either a folate-deficient diet from Harlan-Teklad (TD.00434) starting 14 days before subcutaneous tumor implant to ensure serum folate levels would approximate those of humans. A separate cohort of mice was fed a folate-replete control diet from Lab Diet (5021). Mice were supplied with food and water ad libitum. Serum folate concentrations were monitored prior to tumor implant and post study by Lactobacillus casei bioassay (68). The mice in each group (folate-deficient and standard diet) were pooled before unselective distribution to the treatment and control groups. […] The drugs were dissolved in 5% ethanol (v/v), 1% Tween-80 (v/v), and 0.5% NaHCO3 and were administered intravenously (0.2 ml/injection). The mice were weighed and tumors were measured with a caliper two-to-three times weekly; mice were sacrificed when the cumulative tumor burden reached 1500 mg. Tumor weights were estimated from two-dimensional measurements, where tumor mass (in mg) = (a × b^2)/2, and a and b are the tumor length and width in mm, respectively. The tumor masses from both tumors on each mouse were added together, and the total mass per mouse was used for calculations of anti-tumor activity. Quantitative end-points include: (i) tumor growth delay [T-C, where T is the median time in days required for the treatment group tumors to reach a predetermined size (e.g., 1000 mg), and C is the median time in days for the control group tumors to reach the same size; tumor-free survivors are excluded from these calculations]; and (ii) T/C (in percent) when treatment (T) and control (C) groups for the control groups reached 700 mg in size (exponential growth phase). The median value of each group was determined (including zeros). Mouse weights were monitored as a gauge of drug toxicity.

[4] = target: AICARFTase (Homo sapiens, UniProt P31939); experiment: in vitro inhibition of purified AICARFTase (ATIC)
[5] = IV, AGF291 Q6dx3 start d3, total 23.5 mg/kg, Gemcitabine Q4dx4 start d3, total 480 mg/kg

AICARFTase, sequence (P31939 whole entry): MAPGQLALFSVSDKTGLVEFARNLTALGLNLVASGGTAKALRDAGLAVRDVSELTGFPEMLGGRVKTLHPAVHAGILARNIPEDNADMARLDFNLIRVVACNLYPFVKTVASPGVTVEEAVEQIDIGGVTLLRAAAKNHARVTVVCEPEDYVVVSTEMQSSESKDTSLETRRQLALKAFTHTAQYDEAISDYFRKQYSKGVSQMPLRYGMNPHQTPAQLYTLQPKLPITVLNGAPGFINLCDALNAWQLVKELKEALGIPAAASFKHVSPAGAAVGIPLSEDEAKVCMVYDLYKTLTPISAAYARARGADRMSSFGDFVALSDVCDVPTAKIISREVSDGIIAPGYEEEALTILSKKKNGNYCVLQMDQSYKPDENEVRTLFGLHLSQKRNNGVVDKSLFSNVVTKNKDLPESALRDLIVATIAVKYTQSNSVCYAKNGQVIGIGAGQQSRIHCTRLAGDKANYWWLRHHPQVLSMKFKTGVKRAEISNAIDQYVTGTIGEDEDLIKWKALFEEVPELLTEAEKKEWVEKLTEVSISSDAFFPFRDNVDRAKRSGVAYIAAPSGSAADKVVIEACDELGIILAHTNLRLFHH

Molecule | IC50 [1] | IC50 ([2]; Homo sapiens, HCT-116) | Mean Body Weight Loss (g/mouse) [3, 5] | Percent Body Weight Loss [3, 5] | median tumor burden on day 14 ([3]; day 14, control cohort 1321 mg) | Median Tumor Burden in mg on d16 (range) ([3]; day 16, IV, AGF291 total 23.5 mg/kg, Gemcitabine total 480 mg/kg) | Tumor Free on d52 ([3]; day 52, mice tumor free/total) | Tumor Growth Delay (T-C) ([3]; median T-C to reach 1000 mg, AGF291 total 23.5 mg/kg, Gemcitabine total 480 mg/kg) | Time to 1000 mg in days (range) ([3]; median, IV, AGF291 total 23.5 mg/kg, Gemcitabine total 480 mg/kg) | weight loss (median nadir) ([3]; nadir on day 17 for AGF291, day 6 for GEM, completely reversible after cessation of therapy) | T/C% ([3]; treated/control median tumor burden, AGF291 7.75 mg/kg/inj Q6dx3, GEM 120 mg/kg/inj every 4 days, start day 3) | Ki [4] | IC50 [2] | T-C (1000 mg) ([3]; AGF347 Q2dx8 at 15 mg/kg/inj, total dose 120 mg/kg, start day 3) | mice disease-free at 122 days ([3]; AGF347 Q2dx8 at 15 mg/kg/inj, total dose 120 mg/kg, 122 days)
Nc1nc2ccn(CCCc3ccc(C(=O)N[C@@H](CCC(=O)O)C(=O)O)cc3)c2c(=O)[nH]1 [AGF291] | 0.282 µM | 2.27 µM | -1.8 g/mouse | -8.9% | 256 mg | 334 (0-1221) mg | 0/5 | 10.5 days | 23.0 (15.0-51) days | 9% | 19% | 10.9 ± 6.07 µM |  |  | 
Nc1nc2ccn(CCCCCc3ccc(C(=O)N[C@@H](CCC(=O)O)C(=O)O)s3)c2c(=O)[nH]1 [AGF320] |  |  |  |  |  |  |  |  |  |  |  |  | 0.737 µM |  | 
(2-amino-4-oxo-3,4-dihydro-5H-pyrrolo[3,2-d]pyrimidin-5-yl)butyl)-2-fluorobenzoyl)-L-glutamic acid [AGF347] |  |  |  |  |  |  |  |  |  |  |  |  | 0.437 µM | 54 days | 1/5
